{
  "source": "patent US5656291A",
  "about": "“Controlled release preparation” (Pharmacia & Upjohn Aktiebolag, priority 1995, dated 1997)",
  "origin": "cited, not measured here",
  "conditions": "after oral administration",
  "data": [
    {"smiles": "CN1CC[C@]23c4c5ccc(O)c4O[C@H]2[C@@H](O)C=C[C@H]3[C@H]1C5", "note": "[Morphine]", "values": [
      {"measurement": "duration of analgesic effect", "result": "4 to 6", "unit": "h"}
    ]}
  ]
}
